This passage reports solubility results from patent US8298581B2, “Matrix compositions for controlled delivery of drug substances” (Egalet A/S, priority 2003, dated 2012).

A short description of the data set: Solubility of active ingredient in water. Particulars: 23° C., water at pH 7.6. In kind it is physicochemical.

Each structure is given as a SMILES string. In brackets after ≈: the same amount, converted by molar mass.

One may read the solubility as the concentration that dissolves in the medium under given conditions. A low value points to little dissolved substance. Regarding `NCC(CC(=O)O)c1ccc(Cl)cc1` (stereo not shown) [active ingredient, Baclofen], the concentration in solution (solubility) came to 4.3 mg/mL (≈ 20.1 mM).
